Measured values reported in patent US9359367B2, “Tetrahydroquinazolinone derivatives as PARP inhibitors” (Lupin Limited, priority 2012, dated 2016).

biological target: T1, PARP1 (Homo sapiens, UniProt P09874); assay: PARP1 Biochemical Assay (BPS Bioscience kit, chemiluminescence); settings: histone-coated plate, biotinilated NAD+, 25° C. for 60 min, luminescence, read-out: PARP 1 inhibition IC50
T1 construct: purchased BPS Bioscience
Method: The assay was performed using BPS Bioscience kit. The 96-well strip plate was coated with 50 μl of histone mixture and incubated at 4° C. overnight. Next day the wells were blocked by adding 100 μl of blocking buffer. The plate was washed and 25 μl of appropriate concentration of PARP1 (25-75 ng/well) was added in all the Test and Positive control wells. In Negative control wells enzyme was replaced with 25 μl of water. To it 5 μl each of 10×PARP assay buffer and activated DNA was added in all the wells (Test, Positive and Negative control wells). 10× concentration of test compounds were prepared and 5 μl test compounds were added respective wells. Reaction volume was made up to 45 μl by adding water to all the wells. Finally, 5 μl of 10×PARP assay mixture containing biotinilated NAD^+ was added in each well and the plate was incubated at ambient temperature (25° C.) for 60 min. After washing the plate 50 μl of Streptavidin-HRP was added in each well and incubated the plate at RT for 30 min. The plate was washed and the luminescence was read in PHERAStar plate reader after adding 100 μl of chemiluminescent substrate.
PARP inhibition was calculated using the following formula: % PARP inhibition=100−[(RLU test compound treated sample−RLU negative control)/(RLU Positive control−RLU negative control)×100]
IC50 values were calculated by plotting % inhibition against the respective concentrations of test compounds using GraphPad Prism 5.

T1 sequence (P09874 whole entry): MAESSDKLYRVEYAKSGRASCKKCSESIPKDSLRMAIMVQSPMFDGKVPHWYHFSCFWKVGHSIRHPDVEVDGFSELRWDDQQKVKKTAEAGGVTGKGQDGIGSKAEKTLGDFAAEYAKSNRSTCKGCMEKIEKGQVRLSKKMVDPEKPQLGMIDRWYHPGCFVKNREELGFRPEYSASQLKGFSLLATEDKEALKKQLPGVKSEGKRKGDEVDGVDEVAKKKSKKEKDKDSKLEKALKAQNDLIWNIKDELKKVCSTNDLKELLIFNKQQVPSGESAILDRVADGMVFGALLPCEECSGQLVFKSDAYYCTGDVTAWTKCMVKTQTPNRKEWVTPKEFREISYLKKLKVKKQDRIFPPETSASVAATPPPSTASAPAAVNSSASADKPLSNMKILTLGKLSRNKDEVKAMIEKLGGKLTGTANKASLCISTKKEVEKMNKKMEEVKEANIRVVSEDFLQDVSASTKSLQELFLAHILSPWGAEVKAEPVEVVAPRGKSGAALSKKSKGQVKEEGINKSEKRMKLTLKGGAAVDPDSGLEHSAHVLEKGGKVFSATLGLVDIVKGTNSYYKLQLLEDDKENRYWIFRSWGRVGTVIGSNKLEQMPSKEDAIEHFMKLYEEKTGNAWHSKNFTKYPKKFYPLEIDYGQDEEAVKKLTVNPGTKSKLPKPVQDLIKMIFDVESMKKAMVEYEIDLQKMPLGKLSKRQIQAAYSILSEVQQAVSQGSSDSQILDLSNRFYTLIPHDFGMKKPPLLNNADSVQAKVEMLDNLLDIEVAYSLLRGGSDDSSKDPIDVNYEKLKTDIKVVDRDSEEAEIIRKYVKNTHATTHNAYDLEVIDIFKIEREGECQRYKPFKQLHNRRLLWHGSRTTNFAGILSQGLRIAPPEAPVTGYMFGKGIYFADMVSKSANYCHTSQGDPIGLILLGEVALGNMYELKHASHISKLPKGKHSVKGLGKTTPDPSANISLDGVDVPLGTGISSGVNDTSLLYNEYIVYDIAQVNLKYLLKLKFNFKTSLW

Row | Structure (SMILES) | IC50 [nM]
1 | O=c1[nH]c(C2=C[C@H](N3CCN(c4cccc(Cl)c4)CC3)CC2)nc2c1CC1(CC2)CC1 [Compound 60, (R)-2′-(3-(4-(3-chlorophenyl)piperazin-1-yl)cyclopent-1-en-1-yl)-7′,8′-dihydro-3′H-spiro[cyclopropane-1,6′-quinazolin]-4′(5′H)-one] | 501 to 5000
2 | O=c1[nH]c(C2=C[C@H](N3CCN(c4ccc(F)cc4F)CC3)CC2)nc2c1CC1(CC2)CC1 [Compound 61, (R)-2′-(3-(4-(2,4-difluorophenyl)piperazin-1-yl)cyclopent-1-en-1-yl)-7′,8′-dihydro-3′H-spiro[cyclopropane-1,6′-quinazolin]-4′(5′H)-one] | 1 to 500
3 | O=c1[nH]c(C2=C[C@H](N3CCN(c4ccc(F)c(F)c4)CC3)CC2)nc2c1CC1(CC2)CC1 [Compound 62, (R)-2′-(3-(4-(3,4-difluorophenyl)piperazin-1-yl)cyclopent-1-en-1-yl)-7′,8′-dihydro-3′H-spiro[cyclopropane-1,6′-quinazolin]-4′(5′H)-one] | 1 to 500
4 | O=c1[nH]c(C2=C[C@H](N3CCN(c4ccc(Cl)cc4F)CC3)CC2)nc2c1CC1(CC2)CC1 [Compound 63, (R)-2′-(3-(4-(4-chloro-2-fluorophenyl)piperazin-1-yl)cyclopent-1-en-1-yl)-7′,8′-dihydro-3′H-spiro[cyclopropane-1,6′-quinazolin]-4′(5′H)-one] | 1 to 500
5 | O=c1[nH]c(C2=C[C@H](N3CCN(c4ccc(F)c(Cl)c4)CC3)CC2)nc2c1CC1(CC2)CC1 [Compound 64, (R)-2′-(3-(4-(3-chloro-4-fluorophenyl)piperazin-1-yl)cyclopent-1-en-1-yl)-7′,8′-dihydro-3′H-spiro[cyclopropane-1,6′-quinazolin]-4′(5′H)-one] | 501 to 5000
6 | O=c1[nH]c(C2=C[C@H](N3CCN(c4ccc(Cl)cc4Cl)CC3)CC2)nc2c1CC1(CC2)CC1 [Compound 65, (R)-2′-(3-(4-(2,4-dichlorophenyl)piperazin-1-yl)cyclopent-1-en-1-yl)-7′,8′-dihydro-3′H-spiro[cyclopropane-1,6′-quinazolin]-4′(5′H)-one] | 1 to 500
7 | CC1(C)CN(c2ccc(F)cc2)CCN1[C@H]1C=C(c2nc3c(c(=O)[nH]2)CC2(CC3)CC2)CC1 [Compound 67, (R)-2′-(3-(4-(4-fluorophenyl)-2,2-dimethylpiperazin-1-yl)cyclopent-1-en-1-yl)-7′,8′-dihydro-3′H-spiro[cyclopropane-1,6′-quinazolin]-4′(5′H)-one] | 5000 to 500000
8 | CNC(=O)c1ccc(N2CCN([C@H]3C=C(c4nc5c(c(=O)[nH]4)CC4(CC5)CC4)CC3)CC2)c(F)c1 [Compound 68, (R)-3-fluoro-N-methyl-4-(4-(3-(4′-oxo-4′,5′,7′,8′-tetrahydro-3′H-spiro[cyclopropane-1,6′-quinazolin]-2′-yl)cyclopent-2-en-1-yl)piperazin-1-yl)benzamide] | 1 to 500
9 | CN(C)C(=O)c1ccc(N2CCN([C@H]3C=C(c4nc5c(c(=O)[nH]4)CC4(CC5)CC4)CC3)CC2)cc1 [Compound 69, (R)—N,N-dimethyl-4-(4-(3-(4′-oxo-4′,5′,7′,8′-tetrahydro-3′H-spiro[cyclopropane-1,6′-quinazolin]-2′-yl)cyclopent-2-en-1-yl)piperazin-1-yl)benzamide] | 5000 to 500000
10 | CC1(C)CC(c2nc3c(c(=O)[nH]2)CC2(CC3)CC2)=C[C@H]1N1CCN(c2ccc(F)cc2)CC1 [Compound 70, (R)-2′-(3-(4-(4-fluorophenyl)piperazin-1-yl)-4,4-dimethylcyclopent-1-en-1-yl)-7′,8′-dihydro-3′H-spiro[cyclopropane-1,6′-quinazolin]-4′(5′H)-one] | 5000 to 500000
11 | CC1(C)CC(c2nc3c(c(=O)[nH]2)CC2(CC3)CC2)=C[C@@H]1N1CCN(c2ccc(F)cc2)CC1 [Compound 71, (S)-2′-(3-(4-(4-fluorophenyl)piperazin-1-yl)-4,4-dimethylcyclopent-1-en-1-yl)-7′,8′-dihydro-3′H-spiro[cyclopropane-1,6′-quinazolin]-4′(5′H)-one] | 5000 to 500000
12 | CNC(=O)c1ccc(C2=CCN([C@H]3C=C(c4nc5c(c(=O)[nH]4)CC4(CC5)CC4)CC3)CC2)cc1 [Compound 72, (R)—N-methyl-4-(1-(3-(4′-oxo-4′,5′,7′,8′-tetrahydro-3′H-spiro[cyclopropane-1,6′-quinazolin]-2′-yl)cyclopent-2-en-1-yl)-1,2,3,6-tetrahydropyridin-4-yl)benzamide] | 1 to 500
13 | Cc1ccc(N2CCN([C@H]3C=C(c4nc5c(c(=O)[nH]4)CC4(CC5)CC4)CC3)CC2)cc1 [Compound 73, (R)-2′-(3-(4-(p-tolyl)piperazin-1-yl)cyclopent-1-en-1-yl)-7′,8′-dihydro-3′H-spiro[cyclopropane-1,6′-quinazolin]-4′(5′H)-one] | 1 to 500
14 | COc1ccc(N2CCN([C@H]3C=C(c4nc5c(c(=O)[nH]4)CC4(CC5)CC4)CC3)CC2)cc1 [Compound 74, (R)-2′-(3-(4-(4-methoxyphenyl)piperazin-1-yl)cyclopent-1-en-1-yl)-7′,8′-dihydro-3′H-spiro[cyclopropane-1,6′-quinazolin]-4′(5′H)-one] | 1 to 500
15 | O=c1[nH]c(C2=C[C@H](N3CCC(c4ccc(F)cc4)CC3)CC2)nc2c1CC1(CC2)CC1 [Compound 75, (R)-2′-(3-(4-(4-fluorophenyl)piperidin-1-yl)cyclopent-1-en-1-yl)-7′,8′-dihydro-3′H-spiro[cyclopropane-1,6′-quinazolin]-4′(5′H)-one] | 1 to 500
16 | CNC(=O)c1ccc(N2CCN([C@H]3C=C(c4nc5c(c(=O)[nH]4)CC4(CC5)CC4)CC3)CC2)nc1 [Compound 76, (R)—N-methyl-6-(4-(3-(4′-oxo-4′,5′,7′,8′-tetrahydro-3′H-spiro[cyclopropane-1,6′-quinazolin]-2′-yl)cyclopent-2-en-1-yl)piperazin-1-yl)nicotinamide] | 1 to 500
17 | Cc1ccc(C2CCN([C@H]3C=C(c4nc5c(c(=O)[nH]4)CC4(CC5)CC4)CC3)CC2)cc1 [Compound 77, (R)-2′-(3-(4-(p-tolyl)piperidin-1-yl)cyclopent-1-en-1-yl)-7′,8′-dihydro-3′H-spiro[cyclopropane-1,6′-quinazolin]-4′(5′H)-one] | 1 to 500
18 | O=c1[nH]c(C2=C[C@H](N3CCN(c4cccc(F)c4)CC3)CC2)nc2c1CC1(CC2)CC1 [Compound 78, (R)-2′-(3-(4-(3-fluorophenyl)piperazin-1-yl)cyclopent-1-en-1-yl)-7′,8′-dihydro-3′H-spiro[cyclopropane-1,6′-quinazolin]-4′(5′H)-one] | 1 to 500
19 | O=c1[nH]c(C2=C[C@H](N3CCN(c4ccc(F)cc4Cl)CC3)CC2)nc2c1CC1(CC2)CC1 [Compound 79, (R)-2′-(3-(4-(2-chloro-4-fluorophenyl)piperazin-1-yl)cyclopent-1-en-1-yl)-7′,8′-dihydro-3′H-spiro[cyclopropane-1,6′-quinazolin]-4′(5′H)-one] | 1 to 500
20 | Cc1cc(N2CCN([C@H]3C=C(c4nc5c(c(=O)[nH]4)CC4(CC5)CC4)CC3)CC2)ccc1F [Compound 80, (R)-2′-(3-(4-(4-fluoro-3-methylphenyl)piperazin-1-yl)cyclopent-1-en-1-yl)-7′,8′-dihydro-3′H-spiro[cyclopropane-1,6′-quinazolin]-4′(5′H)-one] | 1 to 500
